Activity calls are given as the source filed them.
Columns and labels:
[1] = target: Neurotensin receptor type 1 (Homo sapiens, UniProt P30989); format: functional;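 further: Image-based confirmatory dose-response assay measuring agonist activity at NTR1; NTR1-expressing U2OS osteosarcoma cells imaged for beta-arrestin GFP spot formation; agonist potency where compounds increase beta-arrestin recruitment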
[2] = A549 cell cytotoxicity, dose response, cytotoxicity control, plate reader, cherry-pick, antagonist series (AID 743412); format: functional, cell-based
[3] = HepG2 cell cytotoxicity, dose response, cytotoxicity control, plate reader, cherry-pick, antagonist series (AID 743416); format: functional, cell-based
[4] = LGR2 antagonists, dose response, cell-based, HEK293, CRE-luciferase reporter, cherry pick, set 2 (AID 743343); format: functional;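 further: transfected cells were stimulated with diluted bursicon conditioned medium after compound addition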
[5] = MC4R antagonists, dose response, counter-screen for LGR2 antagonist project, cell-based, plate reader, cherry pick (AID 743444); format: functional;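 further: transfected HEK 293 cells stimulated with alpha-MSH peptide; potency of inhibitors of the alpha-MSH evoked signal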
[6] = HEK293 cell cytotoxicity, dose response, cytotoxicity control, plate reader, cherry-picked samples (AID 743446); format: functional, cell-based
Wee1-like protein kinase = Wee1-like protein kinase (Homo sapiens, UniProt P30291); test: G2/M cell cycle arrest in HeLa, late-stage follow-up, mechanism study for Wee1 degradation inhibitor project, FACS, panel member Wee1 Degradation (AID 2088)
[7] = target: G2/mitotic-specific cyclin-B1 (Homo sapiens, UniProt P14635); test: G2/M cell cycle arrest in HeLa, late-stage follow-up, mechanism study for Wee1 degradation inhibitor project, FACS, panel member Cyclin B Degradation (AID 2088)
[8] = target: Lysosomal acid glucosylceramidase (Homo sapiens, UniProt P04062); test: Dose response cell-based high throughput screening assay to identify enhancers of beta-glucosidase activity. [Related pubchem assays: 784 ]; format: functional
Cytochrome P450 2C9 = Cytochrome P450 2C9 (Homo sapiens, UniProt P11712); settings: Potency
[9] = target: T1, Tyrosine-protein phosphatase non-receptor type 7 (Homo sapiens, UniProt P35236); format: functional
T1 sequence (P35236 whole entry): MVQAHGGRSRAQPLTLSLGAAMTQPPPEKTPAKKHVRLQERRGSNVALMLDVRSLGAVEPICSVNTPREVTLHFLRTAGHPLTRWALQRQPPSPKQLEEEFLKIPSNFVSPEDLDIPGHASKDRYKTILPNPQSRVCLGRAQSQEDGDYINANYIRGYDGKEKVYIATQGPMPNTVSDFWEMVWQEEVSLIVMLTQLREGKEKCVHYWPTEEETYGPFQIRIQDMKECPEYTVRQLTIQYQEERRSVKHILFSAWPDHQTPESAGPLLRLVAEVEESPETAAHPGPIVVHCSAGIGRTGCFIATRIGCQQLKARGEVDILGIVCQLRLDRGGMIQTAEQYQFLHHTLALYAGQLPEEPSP

[10] = target: Glyceraldehyde-3-phosphate dehydrogenase (Homo sapiens, UniProt P04406)
[11] = target: Heat shock cognate 71 kDa protein (Homo sapiens, UniProt P11142); test: In Vitro Hsc70 Dose Response Fluorescence Polarization Assay. [Related pubchem assays: 1072 ]
Bcl-2-like protein 10 = Bcl-2-like protein 10 (Homo sapiens, UniProt Q9HD36); test: Biochemical TR3 FP assay of Bcl-B inhibitor potency, EC50 (AID 1243); format: functional
[12] = target: Heat shock 70 kDa protein 1A (Homo sapiens, UniProt P0DMV8); test: Hsp70 inhibitors, SAR follow-up, biochemical, fluorescence polarization (AID 1072)
[13] = target: T2, Dual specificity protein phosphatase 6 (Rattus norvegicus, UniProt Q64346)
T2 sequence (Q64346 whole entry): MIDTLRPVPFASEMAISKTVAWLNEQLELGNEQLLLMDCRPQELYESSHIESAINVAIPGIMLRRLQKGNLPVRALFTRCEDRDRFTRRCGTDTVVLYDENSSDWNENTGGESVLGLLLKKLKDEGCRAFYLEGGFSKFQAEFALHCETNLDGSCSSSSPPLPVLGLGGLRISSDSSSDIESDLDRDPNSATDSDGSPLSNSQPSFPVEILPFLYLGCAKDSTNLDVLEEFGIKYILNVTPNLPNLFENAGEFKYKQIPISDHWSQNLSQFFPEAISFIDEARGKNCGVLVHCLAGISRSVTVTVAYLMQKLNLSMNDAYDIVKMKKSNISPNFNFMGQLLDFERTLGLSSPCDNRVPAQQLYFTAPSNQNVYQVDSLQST

[14] = target: T2, Dual specificity protein phosphatase 6; format: functional
Staphylococcus aureus = test: Inhibitors of Bacterial Quorum Sensing Structure Activity Relationship (SAR) Analysis: Dose Response Assay. [Related pubchem assays: 700, 527 ]; format: functional, organism-based
Cytochrome P450 3A4 = Cytochrome P450 3A4 (Homo sapiens, UniProt P08684);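 further: CYP3A4 tested as one member of a cytochrome P450 panel screen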
[15] = HEp-2 cell cytotoxicity, dose response, cytotoxicity control for RSV inhibitor project, HTS (AID 2410); format: functional; settings: human respiratory syncytial virus
[16] = inhibitors of firefly luciferase expression or activity, dose response, H4 neuroglioma cells, luminescence (AID 1990); format: functional, cell-based
[17] = Luminescence Cell-Based Dose Response HTS to Identify Inhibitors of 5'UTR Stem-Loop Driven Prion Protein mRNA Translation in H4 Neuroglioblastoma Cells. [Related pubchem assays: 1827 (Project Summary), 1813 (Primary HTS)]; format: functional
[18] = inhibitors of SNCA 5'UTR-driven reporter translation, confirmation, H4 neuroglioma cells, luminescence (AID 1988); format: functional, cell-based
Vasopressin V1a receptor = Vasopressin V1a receptor (Homo sapiens, UniProt P37288); test: Counterscreen for Oxytocin Receptor (OXTR) agonists: Fluorescence-based cell-based high throughput dose response assay to identify agonists of the vasopressin 1 receptor (V1R). [Related pubchem assays: 2435 (Primary screen (OXTR agonists in singlicate)), 434991 (Counterscreen (V1R agonists in triplicate)), 2482 (Summary (OXTR agonists)) …; format: functional
Oxytocin receptor = Oxytocin receptor (Homo sapiens, UniProt P30559); test: Fluorescence-based cell-based high throughput dose response assay for agonists of the Oxytocin Receptor (OXTR). [Related pubchem assays: 2435 (Primary screen (OXTR agonists in singlicate)), 434991 (Counterscreen (V1R agonists in triplicate)), 2482 (Summary (OXTR agonists)), 434963 (Confirmation screen (OXTR agonists in triplicate))]; format: functional
[19] = target: Beta-2 adrenergic receptor (Homo sapiens, UniProt P07550); test: beta2AR agonists driving receptor internalization, dose response, cell-based, FAP fluorogen, flow cytometry, cherry pick 1 (AID 588763); format: functional
[20] = inhibitors of intracellular T. cruzi replication, confirmation, NIH3T3 host cells, beta-gal luminescence (AID 2044); format: functional, cell-based;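 further: intracellular parasites grown in NIH/3T3 mouse fibroblasts as host cells; luminescent beta-galactosidase reporter signal from transgenic T. cruzi replicating inside host cells; inhibitors lower the luminescence signal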
[21] = cytotoxicity toward NIH3T3 fibroblasts, dose response, counter-screen, cell-based, ATP luminescence, mouse fibroblasts (AID 2010); format: functional;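 further: cells exposed to compound for about 90 hours before reading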
[22] = Cytotoxicity screening for potential Inhibitors of Bacterial Capsule Biogenesis. [Related pubchem assays (depositor defined):AID488970]; format: functional
[23] = target: T3, Neuropeptides B/W receptor type 1 (Homo sapiens, UniProt P48145); test: Fluorescence-based dose response cell-based high throughput screening assay to identify antagonists of the G-protein coupled receptor 7 (GPR7). [Related pubchem assays: 1952 (Screening assay (GPR7 antagonists).), 1880 (Summary AID.)]; format: functional
T3 sequence (P48145 whole entry): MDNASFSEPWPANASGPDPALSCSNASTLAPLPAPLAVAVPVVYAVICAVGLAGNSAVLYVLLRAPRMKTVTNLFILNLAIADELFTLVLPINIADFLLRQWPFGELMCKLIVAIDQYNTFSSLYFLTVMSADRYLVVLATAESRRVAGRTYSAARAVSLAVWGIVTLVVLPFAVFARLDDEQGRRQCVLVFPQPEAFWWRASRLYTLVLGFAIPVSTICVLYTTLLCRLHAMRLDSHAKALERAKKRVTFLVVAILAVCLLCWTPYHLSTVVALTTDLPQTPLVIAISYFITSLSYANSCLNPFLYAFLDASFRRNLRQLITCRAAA

[24] = target: Melanin-concentrating hormone receptor 1 (Homo sapiens, UniProt Q99705); test: Fluorescence-based counterscreen for antagonists of the G-protein coupled receptor 7 (GPR7): cell-based high throughput dose response assay to identify antagonists of the melanin-concentrating hormone receptor 1 (MCHR1).; format: functional
[25] = target: T4, Rac GTPase-activating protein 1 (Homo sapiens, UniProt Q9H0H5); test: MgcRacGAP GTPase-activating activity inhibitors, confirmation, biochemical, ADP Hunter fluorescence, primary and confirmatory (AID 624330); format: functional
T4 sequence (Q9H0H5 whole entry): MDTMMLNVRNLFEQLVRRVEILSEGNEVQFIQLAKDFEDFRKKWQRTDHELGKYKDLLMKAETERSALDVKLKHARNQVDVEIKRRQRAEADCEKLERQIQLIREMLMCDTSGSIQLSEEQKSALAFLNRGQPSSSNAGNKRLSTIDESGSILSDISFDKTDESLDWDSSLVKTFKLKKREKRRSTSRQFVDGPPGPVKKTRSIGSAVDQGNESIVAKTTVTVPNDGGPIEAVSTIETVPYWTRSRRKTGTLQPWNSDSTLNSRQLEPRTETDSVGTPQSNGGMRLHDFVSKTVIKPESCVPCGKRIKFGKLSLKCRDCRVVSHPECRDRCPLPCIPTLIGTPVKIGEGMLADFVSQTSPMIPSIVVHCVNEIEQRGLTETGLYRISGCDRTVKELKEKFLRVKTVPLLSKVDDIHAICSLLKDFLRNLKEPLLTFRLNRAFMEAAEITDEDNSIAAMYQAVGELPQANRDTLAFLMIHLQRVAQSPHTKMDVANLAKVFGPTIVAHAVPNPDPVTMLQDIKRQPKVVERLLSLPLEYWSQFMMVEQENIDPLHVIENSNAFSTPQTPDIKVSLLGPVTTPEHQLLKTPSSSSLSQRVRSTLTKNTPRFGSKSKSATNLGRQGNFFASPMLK

[26] = target: T5, Alkaline phosphatase, tissue-nonspecific isozyme (Homo sapiens, UniProt P05186)
T5 sequence (P05186 whole entry): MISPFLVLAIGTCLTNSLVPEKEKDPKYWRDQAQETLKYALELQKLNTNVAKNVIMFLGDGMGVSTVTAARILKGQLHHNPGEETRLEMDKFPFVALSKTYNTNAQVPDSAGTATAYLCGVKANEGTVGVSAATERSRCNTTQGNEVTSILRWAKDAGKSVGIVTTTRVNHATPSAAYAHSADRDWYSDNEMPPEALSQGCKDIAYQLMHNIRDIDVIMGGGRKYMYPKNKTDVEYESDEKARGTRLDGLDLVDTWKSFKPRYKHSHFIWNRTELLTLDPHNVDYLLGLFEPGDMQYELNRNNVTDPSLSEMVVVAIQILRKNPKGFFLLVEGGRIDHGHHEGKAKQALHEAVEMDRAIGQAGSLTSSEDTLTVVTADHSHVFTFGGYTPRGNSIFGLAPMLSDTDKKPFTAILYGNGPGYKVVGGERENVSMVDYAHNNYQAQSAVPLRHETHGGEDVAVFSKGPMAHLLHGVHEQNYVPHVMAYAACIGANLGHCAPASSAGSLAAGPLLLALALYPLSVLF

Sequence of Bcl-2-like protein 10 (Q9HD36 whole entry): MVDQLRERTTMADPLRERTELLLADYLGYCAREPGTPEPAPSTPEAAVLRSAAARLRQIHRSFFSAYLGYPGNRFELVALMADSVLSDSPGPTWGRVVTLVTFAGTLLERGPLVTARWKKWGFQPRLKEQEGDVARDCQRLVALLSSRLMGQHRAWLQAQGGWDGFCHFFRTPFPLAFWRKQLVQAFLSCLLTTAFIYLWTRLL
Sequence of Cytochrome P450 3A4 (P08684 whole entry): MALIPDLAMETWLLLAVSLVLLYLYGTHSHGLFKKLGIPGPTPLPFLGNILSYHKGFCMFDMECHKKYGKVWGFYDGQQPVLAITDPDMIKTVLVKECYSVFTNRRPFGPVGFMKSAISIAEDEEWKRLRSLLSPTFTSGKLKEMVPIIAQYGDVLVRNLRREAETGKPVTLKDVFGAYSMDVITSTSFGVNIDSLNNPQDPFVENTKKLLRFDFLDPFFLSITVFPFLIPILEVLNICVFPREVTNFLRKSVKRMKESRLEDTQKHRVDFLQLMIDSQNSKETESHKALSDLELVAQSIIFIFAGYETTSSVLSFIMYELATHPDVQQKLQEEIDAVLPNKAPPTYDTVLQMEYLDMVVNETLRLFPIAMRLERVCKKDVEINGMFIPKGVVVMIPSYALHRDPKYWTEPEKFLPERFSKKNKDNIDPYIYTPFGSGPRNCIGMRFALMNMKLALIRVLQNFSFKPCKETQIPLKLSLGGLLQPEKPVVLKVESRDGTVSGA
Sequence of G2/mitotic-specific cyclin-B1 (P14635 whole entry): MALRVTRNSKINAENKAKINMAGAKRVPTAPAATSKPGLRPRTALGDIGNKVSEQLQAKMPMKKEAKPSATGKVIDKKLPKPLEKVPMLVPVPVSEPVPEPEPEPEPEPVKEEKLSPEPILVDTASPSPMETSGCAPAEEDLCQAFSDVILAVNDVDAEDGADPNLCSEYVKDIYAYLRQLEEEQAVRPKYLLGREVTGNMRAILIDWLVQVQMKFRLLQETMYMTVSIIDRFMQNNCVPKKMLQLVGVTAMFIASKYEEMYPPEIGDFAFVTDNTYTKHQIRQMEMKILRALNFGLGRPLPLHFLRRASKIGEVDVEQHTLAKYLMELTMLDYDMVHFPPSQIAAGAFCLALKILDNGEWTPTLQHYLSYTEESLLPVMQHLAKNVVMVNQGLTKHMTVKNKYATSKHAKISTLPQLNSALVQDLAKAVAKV
Sequence of Heat shock cognate 71 kDa protein (P11142 whole entry): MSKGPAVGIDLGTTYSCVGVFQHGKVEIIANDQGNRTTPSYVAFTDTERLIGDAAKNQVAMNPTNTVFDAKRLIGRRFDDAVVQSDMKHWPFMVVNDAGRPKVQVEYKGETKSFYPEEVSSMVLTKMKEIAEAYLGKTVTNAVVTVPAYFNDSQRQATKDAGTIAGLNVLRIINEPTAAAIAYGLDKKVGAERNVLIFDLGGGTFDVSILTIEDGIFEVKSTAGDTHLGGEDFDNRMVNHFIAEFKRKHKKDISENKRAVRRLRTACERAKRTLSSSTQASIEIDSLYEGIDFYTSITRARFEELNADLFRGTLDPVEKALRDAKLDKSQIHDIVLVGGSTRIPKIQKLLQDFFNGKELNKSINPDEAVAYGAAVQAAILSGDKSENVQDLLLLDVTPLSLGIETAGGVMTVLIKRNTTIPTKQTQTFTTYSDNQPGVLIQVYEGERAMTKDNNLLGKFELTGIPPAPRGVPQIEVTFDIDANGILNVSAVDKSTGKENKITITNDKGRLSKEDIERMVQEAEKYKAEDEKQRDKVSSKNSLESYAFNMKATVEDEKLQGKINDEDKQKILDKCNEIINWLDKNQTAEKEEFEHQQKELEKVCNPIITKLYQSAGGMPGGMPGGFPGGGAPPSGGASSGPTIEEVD
Sequence of Beta-2 adrenergic receptor (P07550 whole entry): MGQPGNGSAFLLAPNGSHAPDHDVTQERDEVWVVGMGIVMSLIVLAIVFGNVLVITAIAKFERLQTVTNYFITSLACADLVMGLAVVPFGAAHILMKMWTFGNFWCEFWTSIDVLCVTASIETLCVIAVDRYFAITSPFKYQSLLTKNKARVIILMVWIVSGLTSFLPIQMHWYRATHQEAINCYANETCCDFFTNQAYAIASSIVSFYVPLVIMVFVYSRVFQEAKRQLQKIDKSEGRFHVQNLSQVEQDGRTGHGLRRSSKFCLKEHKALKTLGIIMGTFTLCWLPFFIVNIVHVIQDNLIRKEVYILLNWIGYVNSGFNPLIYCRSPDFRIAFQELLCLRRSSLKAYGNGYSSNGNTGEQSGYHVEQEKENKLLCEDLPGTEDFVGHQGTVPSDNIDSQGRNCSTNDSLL
Sequence of Neurotensin receptor type 1 (P30989 whole entry): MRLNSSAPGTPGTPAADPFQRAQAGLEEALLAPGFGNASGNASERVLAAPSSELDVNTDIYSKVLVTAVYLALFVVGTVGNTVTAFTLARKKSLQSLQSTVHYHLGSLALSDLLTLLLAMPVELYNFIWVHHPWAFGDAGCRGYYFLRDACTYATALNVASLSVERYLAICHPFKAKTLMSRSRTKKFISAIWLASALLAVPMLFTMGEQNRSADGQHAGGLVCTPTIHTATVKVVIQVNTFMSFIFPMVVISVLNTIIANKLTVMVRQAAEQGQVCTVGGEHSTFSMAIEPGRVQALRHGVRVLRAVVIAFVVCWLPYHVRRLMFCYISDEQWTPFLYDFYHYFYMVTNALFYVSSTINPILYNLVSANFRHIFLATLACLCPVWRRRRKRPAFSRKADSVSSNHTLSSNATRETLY
Sequence of Oxytocin receptor (P30559 whole entry): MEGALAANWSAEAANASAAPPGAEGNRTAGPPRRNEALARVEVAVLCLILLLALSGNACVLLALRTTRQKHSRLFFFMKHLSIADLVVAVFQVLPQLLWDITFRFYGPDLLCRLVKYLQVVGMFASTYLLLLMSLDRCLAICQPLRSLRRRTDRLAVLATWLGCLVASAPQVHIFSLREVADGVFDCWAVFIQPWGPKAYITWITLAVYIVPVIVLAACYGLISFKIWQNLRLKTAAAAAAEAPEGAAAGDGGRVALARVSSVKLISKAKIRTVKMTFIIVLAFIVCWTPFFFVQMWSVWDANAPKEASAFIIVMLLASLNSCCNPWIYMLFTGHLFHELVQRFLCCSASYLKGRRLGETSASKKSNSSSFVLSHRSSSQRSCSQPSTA
Sequence of Glyceraldehyde-3-phosphate dehydrogenase (P04406 whole entry): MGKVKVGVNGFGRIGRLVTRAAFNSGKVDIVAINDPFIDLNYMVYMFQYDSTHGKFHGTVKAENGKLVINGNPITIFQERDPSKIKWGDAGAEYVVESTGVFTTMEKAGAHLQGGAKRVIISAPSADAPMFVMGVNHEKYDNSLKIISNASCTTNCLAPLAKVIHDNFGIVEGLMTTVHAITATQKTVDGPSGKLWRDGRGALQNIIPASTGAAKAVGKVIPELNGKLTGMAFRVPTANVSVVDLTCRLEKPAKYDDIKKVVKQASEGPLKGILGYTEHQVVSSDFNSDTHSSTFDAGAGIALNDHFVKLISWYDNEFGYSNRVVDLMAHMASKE
Sequence of Wee1-like protein kinase (P30291 whole entry): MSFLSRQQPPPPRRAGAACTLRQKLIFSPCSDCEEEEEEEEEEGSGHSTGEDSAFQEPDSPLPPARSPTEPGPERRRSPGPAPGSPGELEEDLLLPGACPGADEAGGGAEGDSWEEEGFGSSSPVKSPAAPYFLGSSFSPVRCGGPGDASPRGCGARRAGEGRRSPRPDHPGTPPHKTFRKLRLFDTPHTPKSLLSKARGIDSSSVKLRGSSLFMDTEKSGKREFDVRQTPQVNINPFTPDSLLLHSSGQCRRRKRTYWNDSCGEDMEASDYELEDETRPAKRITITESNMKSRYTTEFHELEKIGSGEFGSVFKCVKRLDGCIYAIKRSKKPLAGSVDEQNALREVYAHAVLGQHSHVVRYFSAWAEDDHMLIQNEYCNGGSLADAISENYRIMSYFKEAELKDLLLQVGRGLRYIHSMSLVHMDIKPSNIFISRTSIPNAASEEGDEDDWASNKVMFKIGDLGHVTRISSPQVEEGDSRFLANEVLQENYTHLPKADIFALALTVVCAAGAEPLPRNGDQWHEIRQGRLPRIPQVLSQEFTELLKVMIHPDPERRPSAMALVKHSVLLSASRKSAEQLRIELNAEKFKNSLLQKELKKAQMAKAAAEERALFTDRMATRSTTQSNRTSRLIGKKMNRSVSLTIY
Sequence of Melanin-concentrating hormone receptor 1 (Q99705 whole entry): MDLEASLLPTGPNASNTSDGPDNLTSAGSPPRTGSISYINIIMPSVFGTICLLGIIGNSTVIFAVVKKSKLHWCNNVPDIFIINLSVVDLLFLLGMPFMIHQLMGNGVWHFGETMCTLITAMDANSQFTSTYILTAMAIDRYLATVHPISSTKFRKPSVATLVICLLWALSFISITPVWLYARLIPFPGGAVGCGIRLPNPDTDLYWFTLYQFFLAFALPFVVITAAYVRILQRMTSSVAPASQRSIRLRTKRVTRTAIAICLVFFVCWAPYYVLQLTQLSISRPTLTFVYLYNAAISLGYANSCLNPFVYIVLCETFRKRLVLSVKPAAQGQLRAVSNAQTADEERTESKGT
Sequence of Vasopressin V1a receptor (P37288 whole entry): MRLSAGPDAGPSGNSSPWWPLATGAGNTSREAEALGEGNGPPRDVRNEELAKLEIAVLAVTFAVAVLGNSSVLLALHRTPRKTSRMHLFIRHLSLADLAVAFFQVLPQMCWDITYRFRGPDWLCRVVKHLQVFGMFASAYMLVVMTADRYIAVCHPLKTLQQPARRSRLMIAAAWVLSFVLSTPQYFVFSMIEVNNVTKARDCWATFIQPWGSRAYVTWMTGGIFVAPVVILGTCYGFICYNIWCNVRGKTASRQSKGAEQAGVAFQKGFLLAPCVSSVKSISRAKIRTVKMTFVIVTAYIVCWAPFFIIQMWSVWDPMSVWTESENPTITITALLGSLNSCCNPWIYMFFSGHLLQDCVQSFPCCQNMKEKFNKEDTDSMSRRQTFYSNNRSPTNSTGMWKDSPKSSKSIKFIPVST

COc1ccc2sc(-c3ccc(S(C)(=O)=O)cc3)c(C#CCO)c2c1
EC50 [1]: 26.6 µM (inactive)
AC50 [2]: 10.6 µM (active)
AC50 [3]: 24.4 µM (active)
AC50 [4]: 25 µM (active)
AC50 [5]: 30.1 µM (active)
AC50 [6]: 16.8 µM (active)

Cc1cc(O)nc(-n2nc(C)cc2NC(=O)c2ccc(F)cc2)n1
EC50 (Wee1-like protein kinase): > 16.6 µM (active)
EC50 [7]: > 49.7 µM (inactive)

CC(C)(C)NC(=O)CSc1nncn1NCc1ccccc1
EC50 [8]: > 50 µM (not active)

C/C=C/OC(=O)NC(c1ccccc1)[C@]1(C(C)=O)CCOC1=O (stereo partly drawn)
AC50 (Cytochrome P450 2C9): 0.794 µM (inconclusive)

CC(=O)Nc1ccc2c(c1)C1C=CCC1C(C(=O)O)N2 (stereo not drawn)
IC50 [9]: 21 µM (active)
IC50 [10]: > 100 µM (not active)
IC50 [11]: > 100 µM (not active)
EC50 (Bcl-2-like protein 10): 4.44 µM (active)
IC50 [12]: 35.2 µM (active)
IC50 [13]: > 100 µM (inactive)
IC50 [14]: > 100 µM (inactive)

Cc1cccc(Nc2ccccc2C(=O)O)c1C [MEFENAMIC ACID]
IC50 (Staphylococcus aureus): 1.34 µM (active)
AC50 (Cytochrome P450 3A4): inconclusive

COc1ccc(CCNCC(O)Cn2c3ccccc3c3ccccc32)cc1OC (stereo not drawn)
CC50 [15]: 13.7 µM (active)
EC50 [16]: 8.76 µM (active)
EC50 [17]: > 120 µM (not active)
EC50 [18]: > 120 µM (not active)
EC50 (Vasopressin V1a receptor): 12.7 µM (not active)
EC50 (Oxytocin receptor): 18.8 µM (not active)
EC50 [19]: 12.5 µM (inactive)

COc1cc(/C=N/N=C(N)N)ccc1OCc1ccccc1Cl
EC50 [20]: 0.447 µM (active)
EC50 [21]: > 60 µM (not active)
CC50 [22]: 6.19 µM (active)

CN(C)c1ccc(Nc2ccc([N+](=O)[O-])cn2)cc1
IC50 [23]: > 43.8 µM (not active)
IC50 [24]: > 43.8 µM (not active)
IC50 [25]: 36.4 µM (active)

C=CCNC(=S)NNC(=O)C(CCC(C)C)CC(C)O (stereo not drawn)
EC50 [26]: 43.5 µM (active)
